Test results published in paper PMC9604483, “Crystal Structure of CYP3A4 Complexed with Fluorol Identifies the Substrate Access Channel as a High-Affinity Ligand Binding Site” (International Journal of Molecular Sciences, 2022).
Read-outs that look alike come from different tables or passages of the source.

Columns and labels:
[1] = biological target: T1, T224A CYP3A4 (Homo sapiens, UniProt P08684, T224A); assay: Stopped-flow kinetics of CYP3A4-fluorol complex formation (fluorol emission decay); format: binding
T1 construct: made in house
Description: (§1) During equilibrium titrations, fluorescence spectra were usually recorded 10–15 min after addition of CYP3A4, which could allow fluorol to adjust/change its initial binding position. To better understand the substrate/inhibitor effects, the kinetics of CYP3A4–fluorol complex formation were measured by monitoring decay of fluorol emission in a stopped-flow spectrophotometer. […] Fluorol binding to WT and T224A CYP3A4 was biphasic within the studied time interval (2 s). The rate constants for the fast and slow phases (kfast and kslow, respectively) determined for ligand-free and progesterone-bound CYP3A4 were virtually independent on fluorol concentration (Figure 5A–D). […] Likewise, kslow was elevated for ritonavir- and GS8-bound WT CYP3A4 but remained unchanged for the T224A mutant.
(§2) Kinetics of CYP3A4–fluorol complex formation were measured in a SX.18MV stopped-flow apparatus (Applied Photophysics, Leatherhead, UK) at 23 °C in 50 mM phosphate buffer, pH 7.4, containing 0.6 mg/mL β-cyclodextrin. WT or T224A CYP3A4 (2 μM) was mixed with 0.25–4 μM fluorol solution prepared from 1–3 mM stocks in DMSO. Equal amounts of DMSO were added to the protein solutions to avoid buffer-related changes in fluorol emission. Fluorescence changes were monitored with λex of 455 nm and a 495 nm cutoff emission filter. […] Kinetics were analyzed using the Igor Pro software (WaveMetrics, Oswego, OR, USA).

[2] = biological target: T2, WT CYP3A4 (Homo sapiens, UniProt P08684); assay: as above; format: binding
T2 construct: made in house
Description: as §1, §2

[3] = Fluorol solubility/aggregation monitored by emission changes; format: physicochemical; conditions: 50 mM potassium phosphate, pH 7.4; with or without 0.6 mg/mL β-cyclodextrin
Description: In our working solution (50 mM potassium phosphate, pH 7.4), dependence of emission intensity on fluorol concentration was linear only within the 0.1–4 μM range (Figure S1A). Addition of 0.6 mg/mL β-cyclodextrin, reported to improve solubility of fluorol, made no difference. For consistency, β-cyclodextrin was included in the assay buffers, while the working concentration of fluorol was limited to 3 μM to avoid/minimize artefacts associated with fluorol aggregation.

[4] = biological target: T1, T224A CYP3A4; assay: Spectral (absorbance) equilibrium titrations of fluorol with CYP3A4; format: binding
Description: (§3) Because fluorol strongly absorbs in the Soret region (Figure 3A), we conducted reverse rather than direct titrations by adding small amounts of CYP3A4 to the experimental cuvette with 3 μM fluorol solution and to a buffer-containing reference cuvette. Based on the difference absorbance spectra, two spectral phases were distinguished. During the first phase, when [CYP3A4] < 0.5 μM and [fluorol]:[CYP3A4] […], spectral perturbations were detected only in the Soret band (red spectra in Figure 3B,C). The lack of changes in the 380–390 nm region implies that the heme remained in a low-spin state. At [CYP3A4] > 0.5, a decrease in the Soret absorption was accompanied by the appearance of a 385 nm peak, indicating a low-to-high spin transition in the heme. For WT CYP3A4, the first spectral phase was more pronounced, with a ~3-fold larger decrease in the Soret band, whereas the 385 nm peak formed during the second phase was ~20% higher compared to that in the T224A mutant. The difference in the total absorbance change is better seen in Figure 3D, where titration plots for WT and T224A CYP3A4 are compared. The best fittings to the binding isotherms were obtained with a two-binding-site model.
(§4) Spectral Titrations—Equilibrium ligand binding to CYP3A4 was monitored using a Cary 300 spectrophotometer at 23 °C in 50 mM phosphate, pH 7.4, containing 0.6 mg/mL β-cyclodextrin (Santa Cruz Biotechnology, Dallas, TX, USA), using a 10 mm light path cuvette. Ten millimolar stock of fluorol (2-butyl-6-(butylamino)-1H-benzo[de]isoquinoline-1,3(2H)-dione; Exciton, Dayton, OH, USA) dissolved in methanol (ε440 nm = 14.0 mM^−1·cm^−1) was diluted with DMSO to prepare 1–3 mM working solutions. During spectral titrations, small aliquots of WT or T224A CYP3A4 were added to the experimental cuvette with a 3 μM fluorol solution (made from 1 mM stock in DMSO) and to the reference cuvette that contained buffer and the same amount of solvent. Difference absorbance spectra were recorded 5–10 min after fluorol addition, when no further spectral perturbations could be detected. The observed absorbance changes (peak-to-trough difference) were plotted vs. […] and fitted using a nonlinear regression analysis to derive dissociation constants.

[5] = biological target: T2, WT CYP3A4; assay: as above; format: binding
Description: as §3, §4

[6] = biological target: CYP3A4 (Homo sapiens, UniProt P08684); design: method as in PMID 22194603; conditions: prior study, cited from earlier work; for Kd: up to 60 μM fluorol
Sequence of CYP3A4 (P08684 whole entry): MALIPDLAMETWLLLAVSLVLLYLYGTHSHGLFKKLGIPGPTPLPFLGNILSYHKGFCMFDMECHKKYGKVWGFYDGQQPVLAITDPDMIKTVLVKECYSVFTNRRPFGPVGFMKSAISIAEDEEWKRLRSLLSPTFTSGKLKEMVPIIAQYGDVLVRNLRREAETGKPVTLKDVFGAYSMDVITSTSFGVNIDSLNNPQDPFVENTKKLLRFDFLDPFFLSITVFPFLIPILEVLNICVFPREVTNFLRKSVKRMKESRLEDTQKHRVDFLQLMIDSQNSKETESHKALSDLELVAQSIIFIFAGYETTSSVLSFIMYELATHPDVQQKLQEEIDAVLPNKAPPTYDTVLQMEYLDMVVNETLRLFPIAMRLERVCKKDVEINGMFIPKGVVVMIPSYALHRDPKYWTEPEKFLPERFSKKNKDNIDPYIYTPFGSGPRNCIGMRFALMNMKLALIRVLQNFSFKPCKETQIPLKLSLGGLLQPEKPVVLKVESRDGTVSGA

T1 sequence (P08684 with tags, fused parts or gaps T224A): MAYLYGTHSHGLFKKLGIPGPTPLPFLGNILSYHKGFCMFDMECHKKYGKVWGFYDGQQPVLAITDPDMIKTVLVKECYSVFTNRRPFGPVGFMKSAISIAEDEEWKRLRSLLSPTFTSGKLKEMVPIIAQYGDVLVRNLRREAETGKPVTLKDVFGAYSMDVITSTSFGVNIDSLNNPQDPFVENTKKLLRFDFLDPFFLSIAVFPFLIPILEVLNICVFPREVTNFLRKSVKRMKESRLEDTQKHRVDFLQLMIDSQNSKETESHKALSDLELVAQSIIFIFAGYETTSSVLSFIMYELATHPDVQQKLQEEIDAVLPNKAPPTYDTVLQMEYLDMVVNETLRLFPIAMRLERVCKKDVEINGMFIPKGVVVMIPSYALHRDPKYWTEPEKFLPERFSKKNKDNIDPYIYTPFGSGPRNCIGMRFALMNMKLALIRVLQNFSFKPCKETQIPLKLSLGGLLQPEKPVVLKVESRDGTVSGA
T2 sequence (P08684 with tags, fused parts or gaps): as the sequence (P08684 with tags, fused parts or gaps T224A) above, with A204T counted along it

Amplitude of quenching, larger in T224A ([1]; ligand-free and progesterone/GS8-bound T224A CYP3A4): 35–50%
Amplitude of quenching, smaller in T224A ([1]; ritonavir-bound T224A CYP3A4): 60%
Fluorol binding kinetics (phases) ([1]; within 2 s): biphasic
Decrease in amplitude of quenching ([2]; WT, in the presence of GS8, equimolar CYP3A4 and fluorol): ~ 20%
Increase in amplitude of quenching ([2]; WT, in the presence of progesterone, equimolar CYP3A4 and fluorol): ~ 40%
Decrease in amplitude of quenching ([2]; WT, in the presence of ritonavir, equimolar CYP3A4 and fluorol): ~ 20%
Fluorol binding kinetics (phases) ([2]; within 2 s): biphasic
Concentration range with linear dependence of emission intensity (no aggregation) [3]: 100 to 4000 nM
Decrease in affinities when the hydroxyl group in Thr224 is eliminated ([4]; T224A vs WT, spectrophotometric Kd): 25–37%
Kd at 3 μM ([4]; human, ligand-free T224A mutant CYP3A4 protein in buffer, pH 7.4, ligand-free T224A CYP3A4, read-out: Kd, spectrophotometric, low-affinity site): 6.6 ± 0.8 µM
Percentage of the absorbance change due to binding of fluorol to the high-affinity site ([4]; ligand-free T224A CYP3A4): 14%
Kd ([4]; ligand-free T224A CYP3A4, read-out: Kd, spectrophotometric, high-affinity site): 0.67 ± 0.12 µM
Difference in affinity between the two independent fluorol binding sites ([5]; WT and T224A CYP3A4, spectrophotometric Kd): 8–10 fold
Decrease in the Soret band during first spectral phase, WT relative to T224A ([5]; [CYP3A4] < 0.5 μM): ~ 3 fold
Height of 385 nm peak formed during second phase, WT compared to T224A ([5]; higher in WT): ~ 20%
Kd at 3 μM ([5]; human, ligand-free WT CYP3A4 protein in buffer, pH 7.4, read-out: Kd, spectrophotometric, low-affinity site): 4.2 ± 0.5 µM
Percentage of the absorbance change due to binding of fluorol to the high-affinity site ([5]; ligand-free WT CYP3A4): 28%
Kd ([5]; ligand-free WT CYP3A4, 3 μM fluorol, 23 °C, 50 mM phosphate pH 7.4, 0.6 mg/mL β-cyclodextrin, read-out: Kd, spectrophotometric, high-affinity site): 0.5 ± 0.04 µM
Compound: CCCCNc1ccc2c3c(cccc13)C(=O)N(CCCC)C2=O [fluorol, 2-butyl-6-(butylamino)-1H-benzo[de]isoquinoline-1,3(2H)-dione]
Kd ([6]; read-out: Kd, high-affinity site (peripheral area)): ~3 µM
Kd ([6]; read-out: Kd, low-affinity area (catalytic cavity)): 10 µM
Hill coefficient [6]: 1.93
